Data from patent US20230210771A1, “COMPOSITIONS FOR THE DELIVERY OF THERAPEUTIC AGENTS AND METHODS OF USE AND MAKING THEREOF” (priority 2020, published 2023).

Test: Terpene concentration (HPLC, GC-FID)
Type: physicochemical
Conditions: terpene content of hemp distillate + alpha-pinene lipid nanoparticle formulation (Example 34), diluted to theoretical 12 mg/mL CBD
Description: A 5 Liter manufacturing batch was analyzed by high pressure liquid chromatography (HPLC) to measure Terpenes present in the sample.
When all ingredients were dissolved, the solvent was removed to form a dried composition. The resulting particle size and zeta potential were determined using a Malvern ZetaSizer and cannabinoid concentrations were determined by UPLC. Terpene concentrations were determined by GC-FID.
In the case of `C=C1CC/C=C(\C)CC[C@@H]2[C@@H]1CC2(C)C` [Beta-Caryophyllene], the “Measured Concentration (mg/g) of terpene” value is reported as 0.026 mg/g and the “Measured Concentration (w/w %) of terpene” value is reported as 0.003%. For `CC1=CCC2CC1C2(C)C` (stereo not drawn) [alpha-Pinene], the “Measured Concentration (mg/g) of terpene” value was 5.205 mg/g and the “Measured Concentration (w/w %) of terpene” value was 0.521%. For `C=CC(=C)CCC=C(C)C` [beta-Myrecene], the “Measured Concentration (mg/g) of terpene” value was “<LOQ” and the “Measured Concentration (w/w %) of terpene” value was “<LOQ”. In the case of `C=CC(C)(O)CC/C=C(\C)CCC=C(C)C` (stereo not drawn) [trans-Nerolidol], the “Measured Concentration (mg/g) of terpene” value is reported as “<LOQ” and the “Measured Concentration (w/w %) of terpene” value is reported as “<LOQ”. With `C=C1CC[C@H]2O[C@]2(C)CC[C@@H]2[C@@H]1CC2(C)C` [Caryophyllene Oxide] the “Measured Concentration (mg/g) of terpene” value was “<LOQ” and the “Measured Concentration (w/w %) of terpene” value was “<LOQ”. In the case of `C=CC(C)(O)CCC=C(C)C` (centres unmarked) [Linalool], the “Measured Concentration (mg/g) of terpene” value is reported as “<LOQ” and the “Measured Concentration (w/w %) of terpene” value is reported as “<LOQ”. In the case of `Cc1ccc(C(C)C)cc1` [p-Cymene], the “Measured Concentration (mg/g) of terpene” value is reported as “<LOQ” and the “Measured Concentration (w/w %) of terpene” value is reported as “<LOQ”. For `CC12CCC(CC1)C(C)(C)O2` [Eucalyptol], the “Measured Concentration (mg/g) of terpene” value was “<LOQ” and the “Measured Concentration (w/w %) of terpene” value was “<LOQ”. In the case of `C=C/C(C)=C\CC=C(C)C` [z-Ocimene], the “Measured Concentration (mg/g) of terpene” value is reported as “<LOQ” and the “Measured Concentration (w/w %) of terpene” value is reported as “<LOQ”. With `C=CC(C)(O)CC/C=C(/C)CCC=C(C)C` (stereo not drawn) [cis-Nerolidol] the “Measured Concentration (mg/g) of terpene” value was “<LOQ” and the “Measured Concentration (w/w %) of terpene” value was “<LOQ”. For `C/C1=C\CC/C(C)=C/CC(C)(C)/C=C/C1` [Humulene], the “Measured Concentration (mg/g) of terpene” value was “<LOQ” and the “Measured Concentration (w/w %) of terpene” value was “<LOQ”. In the case of `C=C(C)[C@H]1CC=C(C)CC1` [delta-Limonene], the “Measured Concentration (mg/g) of terpene” value is reported as “<LOQ” and the “Measured Concentration (w/w %) of terpene” value is reported as “<LOQ”. With `C=C1C2CCC(C2)C1(C)C` (centres unmarked) [Camphene] the “Measured Concentration (mg/g) of terpene” value was 0.046 mg/g and the “Measured Concentration (w/w %) of terpene” value was 0.005%. For `CC1=CCC2C(C1)C2(C)C` (centres unmarked) [Carene], the “Measured Concentration (mg/g) of terpene” value was “<LOQ” and the “Measured Concentration (w/w %) of terpene” value was “<LOQ”. With `CC(C)=CCC/C(C)=C/CO` [Geraniol] the “Measured Concentration (mg/g) of terpene” value was “<LOQ” and the “Measured Concentration (w/w %) of terpene” value was “<LOQ”. With `C=C(C)[C@@H]1CC[C@@H](C)C[C@H]1O` [Isopulegol] the “Measured Concentration (mg/g) of terpene” value was “<LOQ” and the “Measured Concentration (w/w %) of terpene” value was “<LOQ”. With `C[C@H]1CC[C@@H](C(C)(C)O)CC2=C1CC[C@@H]2C` [alpha-Guaiol] the “Measured Concentration (mg/g) of terpene” value was 0.023 mg/g and the “Measured Concentration (w/w %) of terpene” value was 0.002%. In the case of `C=C/C(C)=C/CC=C(C)C` [e-Ocimene], the “Measured Concentration (mg/g) of terpene” value is reported as “<LOQ” and the “Measured Concentration (w/w %) of terpene” value is reported as “<LOQ”. In the case of `CC1=CCC(C(C)C)=CC1` [y-Terpinene], the “Measured Concentration (mg/g) of terpene” value is reported as “<LOQ” and the “Measured Concentration (w/w %) of terpene” value is reported as “<LOQ”. For `CC(C)=CCC[C@](C)(O)[C@@H]1CC=C(C)CC1` [alpha-Bisabolol], the “Measured Concentration (mg/g) of terpene” value was 0.062 mg/g and the “Measured Concentration (w/w %) of terpene” value was 0.006%. With `CC1=CCC(=C(C)C)CC1` [Terpinolene] the “Measured Concentration (mg/g) of terpene” value was “<LOQ” and the “Measured Concentration (w/w %) of terpene” value was “<LOQ”. In the case of `C=C1CCC2CC1C2(C)C` (stereo not drawn) [beta-Pinene], the “Measured Concentration (mg/g) of terpene” value is reported as 0.026 mg/g and the “Measured Concentration (w/w %) of terpene” value is reported as 0.003%.
